What was measured:
KPC Enzyme = KPC Enzyme (Klebsiella pneumoniae, UniProt Q9F663); assay: Imipenem hydrolysis followed by UV absorbance slope, KPC enzyme; format: biochemical; details: for inhibition at 10 µM / KPC Enzyme Inhibition %: C 10 μM; for inhibition at 5 µM: C 5 μM
Description: (§1) These tests were conducted by comparing UV absorbance slope measurements of impenem alone, and then imipenem with the concerned azetidinimines at given concentrations in the presence of the enzyme. It was thus possible to monitor the hydrolysis of imipenem. Lower the value of the slope, the higher is the percentage of inhibition of the enzyme.

OXA-48 Enzyme = OXA-48 Enzyme (Klebsiella pneumoniae, UniProt Q6XEC0); assay: Imipenem hydrolysis followed by UV absorbance slope, OXA-48 enzyme; format: biochemical; details: for inhibition at 10 µM / OXA-48 Enzyme Inhibition %: C 10 μM; for OXA-48 Enzyme, effect in words: Inhibition %, IC50
Chain of OXA-48 Enzyme (Q6XEC0 23-265, looked up, species assumed): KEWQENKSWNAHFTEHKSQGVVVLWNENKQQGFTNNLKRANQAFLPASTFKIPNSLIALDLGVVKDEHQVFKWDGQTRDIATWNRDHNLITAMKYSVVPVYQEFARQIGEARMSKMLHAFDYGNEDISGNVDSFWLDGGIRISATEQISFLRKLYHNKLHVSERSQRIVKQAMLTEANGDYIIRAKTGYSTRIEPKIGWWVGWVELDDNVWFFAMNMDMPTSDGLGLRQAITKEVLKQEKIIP
Description: as §1

NDM-1 Enzyme = NDM-1 Enzyme (Klebsiella pneumoniae, UniProt C7C422); assay: Imipenem hydrolysis followed by UV absorbance slope, NDM-1 enzyme; format: biochemical; details: for inhibition at 5 µM: C 5 μM
Chain of NDM-1 Enzyme (C7C422 29-270, looked up, species assumed): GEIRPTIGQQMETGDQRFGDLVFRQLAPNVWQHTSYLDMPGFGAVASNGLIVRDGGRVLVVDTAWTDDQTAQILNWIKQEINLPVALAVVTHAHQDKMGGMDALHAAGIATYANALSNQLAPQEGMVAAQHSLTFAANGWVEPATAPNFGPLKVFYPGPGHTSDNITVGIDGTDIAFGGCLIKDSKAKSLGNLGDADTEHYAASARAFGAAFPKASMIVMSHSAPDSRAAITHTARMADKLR
Description: as §1

[1] = Stability tests of imipenem with increasing concentrations of tested molecules
Description: as §1
Stability tests of imipenem with increasing concentrations of tested molecules of the present invention (T4#1, i.e. compound #1 of table 4; T4#7 i.e. compound #7 of table 4; T4#9 i.e. compound #9 of table 4; T4#2 i.e. compound #2 of table 4) were also conducted (Table 2).

Chain of KPC Enzyme (Q9F663 25-293, looked up): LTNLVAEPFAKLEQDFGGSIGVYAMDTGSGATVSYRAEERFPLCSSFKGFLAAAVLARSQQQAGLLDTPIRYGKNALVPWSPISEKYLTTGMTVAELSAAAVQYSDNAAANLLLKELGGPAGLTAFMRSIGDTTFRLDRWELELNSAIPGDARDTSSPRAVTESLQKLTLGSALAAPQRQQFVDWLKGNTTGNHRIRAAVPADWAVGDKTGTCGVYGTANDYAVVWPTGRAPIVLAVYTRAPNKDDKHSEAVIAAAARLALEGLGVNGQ

| SMILES | IC50 (NDM-1 Enzyme) | IC50 (KPC Enzyme) | IC50 (OXA-48 Enzyme) | further results |
| --- | --- | --- | --- | --- |
| COc1ccc(N2/C(=N/c3ccccc3)CC2c2ccc(F)cc2)cc1 (stereo not shown) | – | – | – | inhibition at 10 µM (KPC Enzyme): 10%; OXA-48 Enzyme, effect in words (OXA-48 Enzyme): No reported effect; inhibition at 10 µM (NDM-1 Enzyme; C 10 μM): 9% |
| COc1ccc(N2/C(=N/c3ccccc3)CC2c2cc(Cl)cc(Cl)c2)cc1 (stereo not shown) | 2.5 to 5 µM | 2.5 to 5 µM | – | inhibition at 5 µM (KPC Enzyme): 84%; inhibition at 5 µM (OXA-48 Enzyme; C 5 μM): 15%; inhibition at 5 µM (NDM-1 Enzyme): 97% |
| COc1ccc(N2/C(=N/c3ccccc3)CC2c2ccc3ccccc3c2)cc1 (stereo not shown) | 2.5 to 5 µM | 5 to 7 µM | 10 to 20 µM | inhibition at 10 µM (KPC Enzyme): 99%; inhibition at 20 µM (OXA-48 Enzyme; C 20 μM): 94%; inhibition at 5 µM (NDM-1 Enzyme): 94% |
| COc1ccc(N2/C(=N/c3ccccc3)CC2c2cccnc2)cc1 (stereo not shown) | > 100 µM | > 100 µM | – | inhibition at 100 µM (KPC Enzyme; C 100 μM): 12%; OXA-48 Enzyme, effect in words (OXA-48 Enzyme): No reported effect; inhibition at 100 µM (NDM-1 Enzyme; C 100 μM): 23% |
| CSc1ccc(N2/C(=N/c3ccccc3)CC2c2ccccc2)cc1 (stereo not shown) | < 1 µM | < 10 µM | – | inhibition at 20 µM (KPC Enzyme; C 20 μM): 82%; inhibition at 10 µM (OXA-48 Enzyme): 15%; inhibition at 5 µM (NDM-1 Enzyme): 98% |
| CCOc1ccc(N2/C(=N/c3ccccc3)CC2c2ccccc2)cc1 (stereo not shown) | 0.5 to 5 µM | < 5 µM | > 10 µM | inhibition at 5 µM (KPC Enzyme): 100%; inhibition at 10 µM (OXA-48 Enzyme): 45%; inhibition at 5 µM (NDM-1 Enzyme): 100% |
| COc1ccc(N2/C(=N/c3ccc(I)cc3)CC2c2ccc(Cl)cc2)cc1 (stereo not shown) | 0.7 µM | 2.7 µM | 7.5 µM | – |
| COc1ccc(N2/C(=N/c3ccc(Cl)cc3)CC2c2ccc(Cl)cc2)cc1 (stereo not shown) | 0.5 µM | 2.9 µM | > 50 µM | – |
| COc1ccc(N2/C(=N/c3ccc(I)cc3)CC2c2cc(Cl)cc(Cl)c2)cc1 (stereo not shown) | 0.5 µM | 2.9 µM | 8.5 µM | – |
| c1ccc(COc2ccc(N3/C(=N/c4ccccc4)CC3c3ccccc3)cc2)cc1 (stereo not shown) | 0.4 µM | – | – | inhibition at 10 µM (KPC Enzyme): 86%; inhibition at 10 µM (OXA-48 Enzyme): 31% |
| c1ccc(/N=C2\CC(c3ccccc3)N2c2ccc3c(c2)OCCO3)cc1 (stereo not shown) | 1.3 µM | 5 to 10 µM | > 50 µM | – |
| COc1cccc(N2/C(=N/c3ccccc3)CC2c2ccccc2)c1 (stereo not shown) | 1.3 µM | 5 to 10 µM | > 50 µM | – |
| COc1cccc(N2/C(=N/c3ccccc3)CC2c2ccc(Cl)cc2)c1 (stereo not shown) | 0.4 µM | 2.5 to 5 µM | > 50 µM | – |
| COc1ccccc1N1/C(=N/c2ccccc2)CC1c1ccc(Cl)cc1 (stereo not shown) | 1.1 µM | 5 to 10 µM | > 50 µM | – |
| COC(=O)c1ccc(C2C/C(=N\c3ccccc3)N2c2ccccc2)cc1 (stereo not shown) | 4.8 µM | – | – | inhibition at 10 µM (KPC Enzyme): 6%; inhibition at 10 µM (OXA-48 Enzyme): 3.5% |
| CC(C)(C)OC(=O)c1ccc(C2C/C(=N\c3ccccc3)N2c2ccccc2)cc1 (stereo not shown) | 1.8 µM | – | – | inhibition at 10 µM (KPC Enzyme): 45%; inhibition at 10 µM (OXA-48 Enzyme): 32% |
| O=C(O)c1ccc(C2C/C(=N\c3ccccc3)N2c2ccccc2)cc1 (stereo not shown) | 0.7 µM | > 50 µM | > 50 µM | – |
| O=C(O)COc1ccc(N2/C(=N/c3ccccc3)CC2c2ccc(Cl)cc2)cc1 (stereo not shown) | 0.6 µM | > 50 µM | > 50 µM | – |
| Oc1ccc(N2/C(=N/c3ccccc3)CC2c2ccccc2)cc1 (stereo not shown) | 0.8 µM | > 50 µM | > 10 µM | – |
| Oc1ccc(N2/C(=N/c3ccccc3)CC2c2ccc(Cl)cc2)cc1 (stereo not shown) | 3.6 µM | 5 to 7 µM | > 10 µM | – |
| CC(C)(C)OC(=O)NCCOC(=O)c1ccc(C2C/C(=N\c3ccccc3)N2c2ccccc2)cc1 (stereo not shown) | 2.9 µM | – | > 50 µM | – |
| [N-]=[N+]=NCc1ccc(C2C/C(=N\c3ccccc3)N2c2ccccc2)cc1 (stereo not shown) | – | – | > 50 µM | inhibition at 10 µM (KPC Enzyme): 89%; inhibition at 10 µM (NDM-1 Enzyme; C 10 μM): 100% |
| COc1ccc(N2/C(=N/c3ccccc3)CC2c2ccccc2)cc1 (single isomer, unassigned) [Enantiomer 2] | < 5 µM | > 10 µM | – | KPC Enzyme Inhibition % (KPC Enzyme): 45%; inhibition at 10 µM (NDM-1 Enzyme; C 10 μM): 95% |
| COc1ccc(N2/C(=N/c3ccccc3)CC2c2ccccc2)cc1 (stereo not shown) [T4#1] | – | – | – | Slope (stability test of imipenem) ([1]; C 1 μM of tested molecule): 9; Slope (stability test of imipenem) ([1]; C 10 μM of tested molecule): 50; Slope (stability test of imipenem) ([1]; C 100 μM of tested molecule): 506 |
| COc1ccc(C2C/C(=N\c3ccccc3)N2c2ccccc2)cc1 (stereo not shown) [T4#2, (E)-N-(4-(4-methoxyphenyl)-1-phenylazetidin-2-ylidene)aniline] | – | – | – | Slope (stability test of imipenem) ([1]; C 1 μM of tested molecule): 3; Slope (stability test of imipenem) ([1]; C 10 μM of tested molecule): 30; Slope (stability test of imipenem) ([1]; C 100 μM of tested molecule): 321 |
| COc1cc(N2/C(=N/c3ccccc3)CC2c2ccccc2)cc(OC)c1OC (stereo not shown) [T4#7, (E)-N-(4-phenyl-1-(3,4,5-trimethoxyphenyl)azetidin-2-ylidene)aniline] | – | – | – | Slope (stability test of imipenem) ([1]; C 1 μM of tested molecule): 0; Slope (stability test of imipenem) ([1]; C 10 μM of tested molecule): 10; Slope (stability test of imipenem) ([1]; C 100 μM of tested molecule): 174 |
| COc1ccc(N2/C(=N/c3ccccc3)CC2c2ccc(Cl)cc2)cc1 (stereo not shown) [T4#9, (E)-N-(4-(4-chlorophenyl)-1-(4-methoxyphenyl)azetidin-2-ylidene)aniline] | – | – | – | Slope (stability test of imipenem) ([1]; C 1 μM of tested molecule): 2; Slope (stability test of imipenem) ([1]; C 10 μM of tested molecule): 38; Slope (stability test of imipenem) ([1]; C 100 μM of tested molecule): 390 |
| COc1ccc(N2/C(=N/c3ccccc3)CC2c2ccccc2)cc1 (stereo not shown) [drawing 74] | 2 to 5 µM | ~7 µM | – | OXA-48 Enzyme, effect in words (OXA-48 Enzyme): No reported effect; inhibition at 10 µM (NDM-1 Enzyme; C 10 μM): 90% |
| COc1cc(N2/C(=N/c3ccccc3)CC2c2ccccc2)cc(OC)c1OC (stereo not shown) [drawing 75] | > 50 µM | > 50 µM | – | OXA-48 Enzyme, effect in words (OXA-48 Enzyme): No reported effect; inhibition at 50 µM (NDM-1 Enzyme; C 50 μM): 78% |
| COc1ccc(N2/C(=N/c3ccccc3)CC2c2ccc(Cl)cc2)cc1 (stereo not shown) [drawing 76] | 2 to 5 µM | – | – | inhibition at 50 µM (KPC Enzyme; C 50 μM): 44%; OXA-48 Enzyme IC50 (OXA-48 Enzyme): Solubility problems; inhibition at 50 µM (OXA-48 Enzyme; C 50 μM): 21%; inhibition at 10 µM (NDM-1 Enzyme; C 10 μM): 96% |

Continued, in another order:

| IC50 (NDM-1 Enzyme) | IC50 (KPC Enzyme) | IC50 (OXA-48 Enzyme) | SMILES | further results |
| --- | --- | --- | --- | --- |
| 5 to 10 µM | – | – | COc1ccc(C2C/C(=N\c3ccccc3)N2c2ccc(OC)cc2)cc1 (stereo not shown) | inhibition at 10 µM (KPC Enzyme): 7%; inhibition at 10 µM (OXA-48 Enzyme): 3%; inhibition at 10 µM (NDM-1 Enzyme; C 10 μM): 67% |
| 1.1 µM | 3.3 µM | 9.2 µM | COc1ccc(N2/C(=N/c3ccc(I)cc3)CC2c2ccccc2)cc1 (stereo not shown) | – |
| – | 2 µM | > 50 µM | COc1ccc(N2/C(=N/c3ccc(Cl)cc3)CC2c2ccccc2)cc1 (stereo not shown) | inhibition at 10 µM (NDM-1 Enzyme; C 10 μM): 100% |
| – | 3.6 µM | > 50 µM | COc1ccc(N2/C(=N/c3ccc(C(F)(F)F)cc3)CC2c2ccc(Cl)cc2)cc1 (stereo not shown) | inhibition at 10 µM (NDM-1 Enzyme; C 10 μM): 100% |
| 0.6 µM | 2.4 µM | 7.4 µM | CCOc1ccc(N2/C(=N/c3ccc(OC)cc3)CC2c2ccc3ccccc3c2)cc1 (stereo not shown) | – |
| 0.5 µM | 2.5 µM | 6.2 µM | CCOc1ccc(N2/C(=N/c3ccc(I)cc3)CC2c2ccc3ccccc3c2)cc1 (stereo not shown) | – |
| 5 to 10 µM | – | – | COc1ccc(N2/C(=N/c3ccccc3)CC2c2ccccc2)cc1OC (stereo not shown) | inhibition at 10 µM (KPC Enzyme): 17%; inhibition at 10 µM (OXA-48 Enzyme): 9% |
| 5 µM | – | – | c1ccc(/N=C2\CC(c3ccccc3)N2c2ccc3c(c2)OCO3)cc1 (stereo not shown) | inhibition at 10 µM (KPC Enzyme): 6%; inhibition at 10 µM (OXA-48 Enzyme): 20% |
| 1.2 µM | 6 µM | – | c1ccc(/N=C2\CC(c3ccccc3)N2c2ccccc2)cc1 (stereo not shown) | OXA-48 Enzyme Inhibition % (OXA-48 Enzyme): No measurable effect at 10 μM |
| 2.6 µM | 1.3 µM | > 50 µM | CC(C)(C)OC(=O)COc1ccc(N2/C(=N/c3ccccc3)CC2c2ccc(Cl)cc2)cc1 (stereo not shown) | – |
| 2.5 µM | 6 µM | – | ClCc1ccc(C2C/C(=N\c3ccccc3)N2c2ccccc2)cc1 (stereo not shown) | OXA-48 Enzyme Inhibition % (OXA-48 Enzyme): No measurable effect at 10 μM |
| < 5 µM | < 10 µM | – | COc1ccc(N2/C(=N/c3ccccc3)CC2c2ccccc2)cc1 (single isomer, unassigned) [Enantiomer 1] | KPC Enzyme Inhibition % (KPC Enzyme): 70%; NDM-1 Enzyme Inhibition % (NDM-1 Enzyme; C 10 μM): 97% |
| > 10 µM | – | – | COc1ccc(C2C/C(=N\c3ccccc3)N2c2ccccc2)cc1 (stereo not shown) [drawing 77] | KPC Enzyme, effect in words (KPC Enzyme; Inhibition %, IC50): No reported effect; OXA-48 Enzyme, effect in words (OXA-48 Enzyme): No reported effect; inhibition at 20 µM (NDM-1 Enzyme; C 20 μM): 58% |

Source: patent US11174226B2, “Azetidinimines as carbapenemases inhibitors” (priority 2015, dated 2021)
